PMC5642494 (Oncotarget, 2017)
Read-outs that look alike come from different tables or passages of the source.

Experiments:
[1] = test system: FOXM1; test: FOXM1 protein expression, EFM-19; assay type: cell-based; settings: Homo sapiens, 1 DT, read-out: IC50 reduction in FOXM1 positive cells
Protocol: (§1) Relative IC50/EC50 values were determined by curve fitting to a four parameter logistic equation: Y = bottom + ((top-bottom)/ (1+exp(HillSlope*(X – LnIC50)), where X is the natural log of dose/concentration, Y is response, decreasing as X increases, top and bottom are plateaus in the same units as Y, lnIC50 is the natural log of potency, in the same log units as X, and HillSlope measures the steepness of the curve. Data were plotted using GraphPad Prism.
After 72 hours, cells were stained with an anti-FOXM1 antibody and a secondary goat anti-rabbit IgG, Alexa Fluor® 488 conjugate; nuclei were stained with propidium iodide (PI). Alternatively, for assessment of Ki-67 levels, cells were treated for 2 DT and then stained with Ki-67 and a secondary goat anti-rabbit IgG, Alexa Fluor® 488 conjugate. Plates were read in an Acumen Explorer Ex3 (TTP Labtech) using Cellista software and the percentages of FOXM1 positive and Ki-67 positive cells were calculated over the background signal. Data were normalized in Excel using the mean value obtained from treatment with 2 µM BEZ235 as the minimum and the mean value obtained from treatment with 0.2% DMSO as the maximum.

[2] = test system: pRb (Ser780); test: High content imaging of Rb phosphorylation (Ser780), MDA-MB-361; assay type: cell-based; settings: Homo sapiens, 16 hours, mean ± Stdev n = 2
Protocol: as §1
As controls, cells were treated with 10 µM palbociclib or vehicle ( 0.2 % v/v DMSO). Additional details for cell-based assays are provided in the Supplemental Methods. […]
(§2) www.impactjournals.com/oncotarget/ Oncotarget Supplementary Materials
(§3) Preclinical characterization of abemaciclib in hormone receptor […]
METHODS High content imaging cell-based assays for monitoring phosphorylation of Rb (ser780), G1 arrest and
Enzyme kinetics of CDK6/cyclin D3 complexes Cells were fixed with para-formaldehyde and Rb phosphorylation at Serine 780 was detected using CDK6/cyclin D3 activity was measured by the a primary mouse anti-Rb (PS780) antibody followed phosphorylation of CTRF using [g-33P] […] Plates were read in an kinase buffer containing 68 mM Hepes at pH 7.5, 6.67 mM Acumen Explorer eX3 (TTP Labtech). […]
(EDTA) was used to determine the level of background evaluated by measuring PI signal using high content 33P in the absence of enzyme activity. […]

[3] = test system: MDA-MB-361 cells; test: PI high content imaging of G1 arrest and cell proliferation, MDA-MB-361; assay type: cell-based; settings: Homo sapiens, at least 2 DT
Protocol: as §1, with “Prism. […]” for “Prism.”
as §2, §3
Enzyme kinetics of CDK6/cyclin D3 complexes Cells were fixed with para-formaldehyde and Rb phosphorylation at Serine 780 was detected using CDK6/cyclin D3 activity was measured by the a primary mouse anti-Rb (PS780) antibody followed phosphorylation of CTRF using [g-33P] […] Plates were read in an kinase buffer containing 68 mM Hepes at pH 7.5, 6.67 mM Acumen Explorer eX3 (TTP Labtech). […] 10µL of CDK6/cyclin corresponding to 500-530 nm and the percentage of D3 enzyme complex (Millipore 14-519, #D13BP009NA) cells with pRb signal relative to the total PI stained (1 nM final concentration in the assay) was added onto subpopulation was calculated by the instrument’s software a mix of substrate and test compound. […]

[4] = test system: MDA-MB-361 cells; test: Annexin V/PI flow cytometry, MDA-MB-361; assay type: cell-based, human; settings: 3 DT (untreated 45.7%)
Protocol: Annexin V/PI staining was performed following the vendor’s specifications in MCF7 and MDA-MB-361 cells. […] Raw data were analyzed with FlowJo X software. Events were gated for debris exclusion and singlets selection. A minimum of 10,000 cells were analyzed per sample.

Work on CCN1CCN(Cc2ccc(Nc3ncc(F)c(-c4cc(F)c5nc(C)n(C(C)C)c5c4)n3)nc2)CC1 [abemaciclib, Abemaciclib] yielded an IC50 [1] of 8 nM, an IC50 [2] of 67 ± 37 nM and an IC50 ([3]; n = 2, read-out: IC50 2n (G1 arrest)) of 38 ± 2 nM. For the same molecule, the IC50 ([3]; n = 2, read-out: IC50 Cell number) was 45 ± 14 nM, the “cells positive for annexin V” value ([4]; 0.5 µM) was 84.6% and the “cells positive for annexin V” value ([4]; 2 µM) was 88.8%.
